In PubChem BioAssay AID2305 (GlaxoSmithKline (GSK), 2010):

Test system: P. falciparum 3D7 growth, pLDH absorbance
Assay: blood-stage malaria parasite growth potency – strain 3D7, dose response (AID 2305)

| SMILES | IC50 [nM] |
| --- | --- |
| NC(=O)c1ccccc1Nc1nc(Nc2cccc(N3CCN(CCO)CC3)c2)ncc1Cl | 40 |
| COc1ccccc1Cc1c(C)nc2nc(N)nc(N)c2c1C | 570 |
| CC(C)NCc1cccc(-c2cccc(NC(=O)c3cccc(Cl)c3)c2)c1 | 590 |
| N#Cc1ccc(C=CC(=O)NC2CCC(CCN3CCc4ccc(-c5cnccn5)cc4CC3)CC2)cc1 (configuration not stated) | 610 |
| CCN(CC)CCCC(C)Nc1c2cc(OC)ccc2nc2cc(Cl)c([N+](=O)[O-])cc12 (configuration not stated) | 790 |
| COCCNCc1nc(-c2ccc3c(Nc4ccc(Cl)cc4F)ccnc3c2)cs1 | 1080 |
| CCn1cc(-c2nc(-c3cc(OC)cc(OC)c3)no2)c(=O)c2ccccc21 | 340 |
| Cc1cnc(-c2cccc(C(=O)NC3CCC(CCN4CCc5ccc(C#N)cc5CC4)CC3)c2)[nH]1 (configuration not stated) | 300 |
| O=C(Nc1cccc(CN2CCCN(Cc3ccc(O)cc3)CC2)c1)c1ccc(-c2ccccc2)cc1 | 340 |
| O=C(NCCc1ccccc1)N(Cc1ccc(-c2cccc(CN3CCNCC3)c2)cc1)C1CCN(Cc2ccccc2)CC1 | 1360 |
| COc1cccc(C(=O)Nc2nc3c(s2)CCN(Cc2ccccc2N2CCNCC2)CC3)c1 | 890 |
| CN1CCCC(CN2CCN(Cc3ccc(-c4ccc(-c5nc6ccccc6[nH]5)cc4)cc3)CC2)C1 (configuration not stated) | 140 |
| CC(C)c1ccc(OCC(O)CN(C)C(C)C(O)c2ccccc2)c(Br)c1 (configuration not stated) | 810 |
| COc1ccc2cc(C(=O)Nc3ccc4c(c3)CCN(C3CCC3)CC4)ccc2c1 | 840 |
| O=c1cc(NCCC2CC=CCN2Cc2ccc(Cl)c(Cl)c2)[nH]c2ccccc12 (configuration not stated) | 1730 |
| N#Cc1cccc(CN2CCCN(c3ccc(NC(=O)c4cccs4)cc3)CC2)c1 | 810 |
| O=[N+]([O-])c1cc(/C=N/Nc2nc3ccccc3[nH]2)ccc1O | 950 |
| CCN1CCC(N(Cc2ccc(-c3ccc(C(F)(F)F)cc3)cc2)C(=O)Cn2c(CCc3cccc(F)c3F)cc(=O)c3c2CCCC3)CC1 | 760 |
| COc1cc(C(=O)N2CCN(C(C)C)CC2)ccc1CN(C)CCCCN1CCN(c2cccc(Cl)c2Cl)CC1 | 700 |
| Oc1ccc(CCNc2nc(NCc3ccccc3-c3ccc(C(F)(F)F)cc3)nc(N3CCNCC3)n2)cc1 | 870 |
| CN1CC=C(C=Cc2c[nH]c3ccccc23)CC1 | 1340 |
| Cc1nc(NCCCn2ccnc2)cc(-c2cncc(-c3ccc(OC(F)(F)F)cc3)c2)n1 | 620 |
| COc1ccc2nccc([C@@H](O)CN3CCC(NCc4ccc5nsnc5c4)CC3)c2c1 | 960 |
| COc1cc2nc(NC3CCN(Cc4ccccc4)CC3)nc(N)c2cc1OC | 170 |
| O=C(Nc1cccc(-c2ccc(CN3CCCC3)cc2)c1)c1ccc(F)cc1 | 1080 |

| SMILES | IC50 [nM] |
| --- | --- |
| CCCCOc1c(CNCCCCCCNCc2ccc3ccccc3c2OCCCC)ccc2ccccc12 | 870 |
| CCCNC(=O)C1CCN(C(c2ccccc2)c2ccc(Cl)c(Cl)c2)CC1 (configuration not stated) | 710 |
| Cc1ccc(NC(=O)Nc2ccc(Br)cc2)cc1OCCN(C)C | 980 |
| Fc1ccc2nc(-c3ccc(-c4ccc(CN5CCCCC5)cc4)s3)[nH]c2c1 | 600 |
| Cc1ccc(-c2cnc(N)c3cc(-c4ccnc(N)n4)ccc23)cc1 | 810 |
| CS(=O)(=O)N(CC(O)Cn1c2ccc(Cl)cc2c2cc(Cl)ccc21)c1ccccc1 (configuration not stated) | 900 |
| CN1C[C@@H](c2ccccc2)c2cc(O)c(CN3CCCCC3)cc2C[C@H]1Cc1ccccc1 | 180 |
| COc1cc2c(cc1S(=O)(=O)c1ccc(NC(=O)Nc3ccc(F)cc3)cc1)CCN(C)CC2 | 470 |
| CC(C)CN(c1nc(C(=O)NNC(=O)[C@H](CC2CC2)NC(=O)c2cc3cc(OCCN(C)C)ccc3o2)cs1)C1CC1 | 1030 |
| COc1ccc2nccc([C@@H](O)CN3CCC(NCc4ccc5scnc5c4)CC3)c2c1 | 400 |
| CCCN(CCC)CC(O)COc1ccccc1C(=O)Nc1ccccc1 (configuration not stated) | 800 |
| CCCNCCc1ccc(NS(=O)(=O)c2cccc(-c3ccc(Cl)cc3)c2)cc1 | 970 |
| Oc1ccccc1CN1CCN(C(c2ccccc2)c2ccccc2)CC1 | 760 |
| COc1cc(-c2nc(-c3ccccc3)c(-c3ccc([N+](=O)[O-])cc3)[nH]2)cc(OC)c1O | 830 |
| CN1CCCC1CCNc1ncc2c(-c3ccc(NC(=O)Nc4cc(C(F)(F)F)ccc4F)cc3)nn(C)c2n1 (configuration not stated) | 340 |
| CNc1nc(NN=Cc2cc3c(cc2[N+](=O)[O-])OCO3)nc(Nc2cccc(C(F)(F)F)c2)n1 | 770 |
| COc1ccc2nccc([C@@H](O)CN3CCC(NC(=O)[C@@H]4Cc5ccccc5CN4C(=O)OC(C)(C)C)CC3)c2c1 | 890 |
| CC(C)(C)NC(=O)COC(=O)c1c2c(nc3ccccc13)C(=Cc1ccc3c(c1)OCO3)CCC2 | 740 |
| c1ccc(-c2cc(NCCCn3ccnc3)nc(-c3cccnc3)n2)cc1 | 980 |
| CC(C)C(=O)NC(c1cccs1)c1cc(Cl)c2cccnc2c1O (configuration not stated) | 580 |
| Oc1ccc(CCNCCCCCCNCCc2ccc(Cl)c3ccccc23)cc1O | 720 |
| O=c1[nH]c(Cc2ccccc2)nc2ccc(Cl)cc12 | 880 |
| O=C(Cc1cc(F)cc(F)c1)NC1CCN(c2ccnc3cc(Cl)ccc23)C1 (configuration not stated) | 250 |
| O=c1cc(NC[C@H]2CCC[C@@H]2NC2CCCc3c2[nH]c2ccccc32)[nH]c2ccccc12 (some centres not stated) | 790 |
| Cc1cc(N[C@@H](Cc2ccccc2)C(=O)NCc2cccs2)nc(NCCc2ccccn2)n1 | 1280 |

| SMILES | IC50 [nM] |
| --- | --- |
| CC1(C)Cc2c([nH]c3ccccc23)C(CCCCCCCCC2=NC(C)(C)Cc3c2[nH]c2ccccc32)=N1 | 930 |
| CCCCCOc1ccc(NC2=CC(=O)C(=O)c3ccccc32)cc1 | 240 |
| O=C(NCc1ccc(C(F)(F)F)cc1)c1cccc(-c2nnc(-c3cccc(-c4cncnc4)c3)o2)c1 | 540 |
| CNC(=O)c1ccc2[nH]cc(C3CCN(CC4CCC(NC(=O)/C=C/c5ccc(Cl)c(Cl)c5)CC4)CC3)c2c1 (configuration not stated) | 1010 |
| C[C@H](NC(=O)C1CCCC1)C(=O)Nc1ccc(-c2ccc(-c3nc4ccc(C(F)(F)F)cc4[nH]3)cc2)cc1 | 270 |
| O=C(NC1CC1)c1cnc(N2CCCC(c3ccccc3)C2)c(Cl)c1 (configuration not stated) | 800 |
| CC1CN(Cc2cccc(C#N)c2)CCN1c1ccc(NC(=O)c2cccs2)cc1 (configuration not stated) | 680 |
| O=C(NCc1cccc(C(F)(F)F)c1)C1CCCN(C(=O)c2ccc(O)c(-c3ccc(Cl)c(Cl)c3)c2)C1 (configuration not stated) | 800 |
| CCCCCCCCCN1CC[C@@H](CCCc2ccnc3ccc(O)cc23)[C@@H](CC)C1 | 290 |
| CCCN(C(=O)c1ccccc1C)c1nnc(-c2ccccc2C)s1 | 1110 |
| CC(C)CNCc1cccc(-c2cccc(CN(C(=O)NC3CCCCC3)C3CCN(Cc4ccccc4)CC3)c2)c1 | 820 |
| Clc1ccc2c(NCc3ccccn3)ccnc2c1 | 660 |
| Nc1ncc(-c2ccc(F)cc2)c2ccc(-c3cccc(F)c3)cc12 | 230 |
| COc1cccc(CNC[C@@H](O)[C@H](Cc2ccccc2)NC(=O)c2cc(C(C)C)cc(N3CCCC3=O)c2)c1 | 950 |
| Cc1ccc(S(=O)(=O)N2CCN(C(=O)c3cc(-c4cccs4)[nH]n3)CC2)c(C)c1 | 870 |
| CC(C)(C)CCOC(=O)N1CCc2c(cc(O)c(O)c2Cl)C(c2ccc(O)cc2)C1 (configuration not stated) | 750 |
| CN1CCN(c2cc3c(cc2Cl)CCN3C(=O)Cc2ccc(NC(=O)Nc3cccc4ccccc34)cc2)CC1 | 970 |
| O=C(Nc1ccc(-c2nc3ccccc3[nH]2)cc1)c1cncc(Br)c1 | 810 |
| CCOc1cc(C(=O)NCCN(CC)c2cccc(C)c2)ccc1-c1nc2ccc(Cl)cc2[nH]1 | 810 |
| CCc1cc(COc2ccc(CNCCC(C)C)cc2I)c(OCc2ccccc2)c(COc2ccc(CNCCC(C)C)cc2I)c1 | 1110 |
| CN(C)C1CCN(CC#Cc2cc3ncnc(Nc4ccc(OCc5cccc(F)c5)c(Cl)c4)c3s2)CC1 | 890 |
| COC(=O)CNC(c1ccccc1)c1cc(Br)ccc1NC(=O)c1ccccc1Br (configuration not stated) | 990 |
| CCOc1ccc(CN(CCc2ccc3c(c2)OCO3)Cc2cc(OC)ccc2O)cc1 | 750 |
| O=C(O)CNCC(O)c1ccccc1 (configuration not stated) | 180 |
| CNC(=O)c1cnc(Nc2ccc(OCC(O)CN(C)C)cc2)nc1Nc1cccc(Br)c1 (configuration not stated) | 120 |

| SMILES | IC50 [nM] |
| --- | --- |
| C[C@H](Cc1ccc(CCc2ccc(C[C@@H](C)NC[C@H](O)c3cccc(Cl)c3)cc2)cc1)NC[C@H](O)c1cccc(Cl)c1 | 940 |
| O=C(NCCCCN1CCC(c2ccc3c(c2OCCO)CCCC3)CC1)c1ccc2oc(-c3ccc(C(F)(F)F)cc3)cc2c1 | 340 |
| Cc1cccc(-c2ccc(NC(=O)C3CCN(Cc4cccc(O)c4)CC3)cc2)c1 | 980 |
| COC(=O)c1ccc(CC(C)NCC(O)c2cccc(OC(F)(F)F)c2)cc1 (configuration not stated) | 860 |
| CC[C@H](C)CNC(=O)c1cncc(-c2ccc(CN3CCC(N4CCCC4)CC3)cc2)c1 | 970 |
| O=C(NC1CCN(CC2(c3ccccc3)CCCC2)CC1)c1[nH]ncc1Cl | 1040 |
| COc1cc(OC)c(NC(=O)C2c3ccccc3C(=O)N(CC(C)C)C2c2cccs2)cc1Cl (configuration not stated) | 50 |
| CC[C@H]1CN2CC[C@@H]1C[C@H]2[C@H](O)c1cc(-c2ccc(Cl)c(Cl)c2)nc2ccc(O)cc12 | 260 |
| CN(C)c1ccc(C2c3nc[nH]c3CCN2C(=O)Nc2cccc([N+](=O)[O-])c2)cc1 (configuration not stated) | 970 |
| CC[C@H](C)CNC(=O)c1cncc(-c2ccc(CNC3Cc4ccccc4C3)cc2)c1 | 830 |
| OCC1CCN(Cc2ccc(-c3ccc(-c4nc5ccc(F)cc5[nH]4)cc3)cc2)CC1 | 840 |
| Cc1cc(-c2nc3ccc(CN4CCN(C)CC4)cc3[nH]2)nn1Cc1cc(Cl)ccc1OCc1ccccc1 | 1120 |
| COc1ccc(N2C(N)=NC(N)=NC2(C)C)cc1OC | 310 |
| O=C(C=Cc1cccs1)Nc1ccc(-c2nc3ccccc3[nH]2)cc1 | 1140 |
| OCCN1CCN(Cc2ccc(-c3ccc(-c4nc5ccc(F)cc5[nH]4)cc3)cc2)CC1 | 570 |
| O=C(Nc1ccc(C(=O)Oc2ccc(-c3ccccc3)cc2)cc1)N[C@@H](Cc1ccc(O)cc1)C(=O)NC1CCN(Cc2ccc(O)cc2)C1 (some centres not stated) | 800 |
| COc1ccccc1CCNc1nc(C)cc(N[C@@H](Cc2ccccc2)C(=O)NCCCOC(C)C)n1 | 860 |
| CC(=O)Nc1cc(C(=O)Nc2ccc(C3=NCCN3)cc2)ccc1C(=O)Nc1ccc(C2=NCCN2)cc1 | 130 |
| FC(F)(F)c1ccc(-c2ccc(CNC3CCN(CCN4CCOCC4)CC3)cc2)cc1 | 760 |
| Cc1cc(N[C@@H](Cc2ccccc2)C(=O)NCc2cccc(F)c2)nc(Nc2ccccc2)n1 | 930 |
| CCOC(=O)c1cccc(NC(=O)Nc2cccc(-c3ncc(OCCCN)c4c3nc(-c3nonc3N)n4CC)c2)c1 | 890 |
| CCc1sc(N2CCN(C)CC2)nc1C(=O)Nc1ccc(F)cc1C(F)(F)F | 180 |
